The text below walks through data of PubChem BioAssay (NCI).

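Compound exposure: 48 hours, 5 concentrations, 96-well plates. GI50 is the concentration that inhibits growth by half. TGI denotes the concentration required for complete inhibition of growth.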

Test systems include A549 NSCLC; MALME-3M melanoma; MDA-MB-435; SF-268 CNS; COLO 205 colon; A498 renal; RPMI-8226 leukemia; NCI-H226 lung; CCRF-CEM leukemia; IGROV1 ovarian.
Assay in all cases: NCI tumour cell line growth inhibition, 48 h

As to `CC(O)CN(CCN(CC(C)O)CC(C)O)CC(C)O.O=[N+]([O-])O.[Cu+2]` (stereo not given), the GI50 in the assay on A549 NSCLC is 46.5 µM; with MALME-3M melanoma it was greater than 100 µM; with MDA-MB-435 it was greater than 100 µM; in the assay on SF-268 CNS it was greater than 100 µM; in the assay on COLO 205 colon it was greater than 100 µM; in the assay with A498 renal, 30.9 µM. The GI50 in the assay with RPMI-8226 leukemia, in the assay on NCI-H226 lung, with CCRF-CEM leukemia and with IGROV1 ovarian was greater than 100 µM throughout. Besides, the TGI with A549 NSCLC was greater than 100 µM; in the assay on MALME-3M melanoma, greater than 100 µM; with MDA-MB-435 it was greater than 100 µM; in the assay with SF-268 CNS, greater than 100 µM; with COLO 205 colon it was greater than 100 µM; with A498 renal, 63.3 µM. The TGI with RPMI-8226 leukemia, with NCI-H226 lung, with CCRF-CEM leukemia and with IGROV1 ovarian was greater than 100 µM in each case.

As for `Cn1c2ccccc2c2c3c(c4c5ccccc5n(CCCCCC#N)c4c21)C(=O)N(O)C3=O`, the GI50 in the assay with A549 NSCLC is 1.68 µM; in the assay with MALME-3M melanoma, 2.22 µM; in the assay on MDA-MB-435 it was 0.788 µM; in the assay with SF-268 CNS, 0.624 µM; in the assay on COLO 205 colon, 2.5 µM; in the assay with A498 renal it was 1.21 µM. Also, the GI50 with RPMI-8226 leukemia was 0.609 µM; in the assay with NCI-H226 lung, 1.6 µM; in the assay with CCRF-CEM leukemia, 0.374 µM; in the assay on IGROV1 ovarian it was 1.59 µM. Also, the TGI in the assay on A549 NSCLC is 50.4 µM; with MALME-3M melanoma, 7.05 µM; in the assay on MDA-MB-435, 9.59 µM; with SF-268 CNS, greater than 100 µM; in the assay with COLO 205 colon it was 9.09 µM; in the assay with A498 renal it was 3.56 µM. Also, the TGI with RPMI-8226 leukemia is 4.65 µM; in the assay with NCI-H226 lung it was 7.14 µM; in the assay on CCRF-CEM leukemia it was greater than 100 µM; in the assay with IGROV1 ovarian, 4.61 µM.

On to `O=Nc1c(-c2cccc([N+](=O)[O-])c2)nc2ncccn12`, for which the GI50 was 21.8 µM in the assay with A549 NSCLC; 14.5 µM in the assay with MALME-3M melanoma; 13.7 µM in the assay with MDA-MB-435; 18.3 µM with SF-268 CNS; 6.25 µM in the assay with COLO 205 colon; 17.4 µM in the assay with A498 renal. For the same compound, the GI50 with RPMI-8226 leukemia is 1.47 µM; in the assay with NCI-H226 lung it was 16.2 µM; in the assay on CCRF-CEM leukemia, 1.86 µM; with IGROV1 ovarian it was 10.3 µM. Besides, the TGI in the assay on A549 NSCLC was 56.9 µM; in the assay on MALME-3M melanoma it was 29.1 µM; in the assay on MDA-MB-435 it was 36.4 µM; with SF-268 CNS, 66.8 µM; in the assay with COLO 205 colon, 19.9 µM; in the assay with A498 renal, 38.3 µM. The TGI with RPMI-8226 leukemia amounted to 6.56 µM; in the assay on NCI-H226 lung, 37 µM; in the assay on CCRF-CEM leukemia, 4.44 µM; in the assay on IGROV1 ovarian, 23.4 µM.

In the case of `Nc1nc(Cl)nc2c1ncn2C1O[C@H](CO)[C@@H](O)[C@@H]1F` (stereo not given in full), the GI50 with A549 NSCLC was 0.379 µM; with MALME-3M melanoma, 43.4 µM; with MDA-MB-435, 0.485 µM; with SF-268 CNS it was 0.229 µM; in the assay on COLO 205 colon, 0.523 µM; in the assay with A498 renal it was 0.682 µM. Also, the GI50 is greater than 31.5 µM in the assay on RPMI-8226 leukemia, 0.329 µM in the assay on NCI-H226 lung, 0.0281 µM in the assay with CCRF-CEM leukemia and greater than 73.5 µM in the assay with IGROV1 ovarian. The TGI is greater than 100 µM in the assay on A549 NSCLC; greater than 100 µM with MALME-3M melanoma; greater than 100 µM in the assay with MDA-MB-435; greater than 54 µM with SF-268 CNS; greater than 100 µM in the assay on COLO 205 colon; 14.3 µM in the assay on A498 renal. Moreover, the TGI in the assay on RPMI-8226 leukemia is greater than 100 µM; in the assay with NCI-H226 lung it was 37.5 µM; with CCRF-CEM leukemia it was greater than 100 µM; with IGROV1 ovarian, greater than 100 µM.

Consider `CN(C)CCn1cc(-c2ccc3c(Nc4ccc(CC(=O)Nc5cccc(F)c5)cc4)ncnc3c2)cn1`, for which the GI50 was 1.3 µM with A549 NSCLC; 4.7 µM with MALME-3M melanoma; 2.86 µM with MDA-MB-435; 1.43 µM in the assay with SF-268 CNS; 0.0559 µM in the assay on COLO 205 colon; greater than 10 µM with A498 renal. The GI50 in the assay on RPMI-8226 leukemia was 2.32 µM; in the assay on NCI-H226 lung it was greater than 10 µM; in the assay with CCRF-CEM leukemia, 0.0178 µM; in the assay with IGROV1 ovarian it was 2.01 µM. For the same compound, the TGI in the assay on A549 NSCLC was 3.46 µM; in the assay with MALME-3M melanoma, greater than 10 µM; in the assay on MDA-MB-435, greater than 10 µM; in the assay on SF-268 CNS it was 3.39 µM; with COLO 205 colon, 3.22 µM; in the assay with A498 renal, greater than 10 µM. In addition, the TGI was 5.93 µM in the assay on RPMI-8226 leukemia, greater than 10 µM in the assay on NCI-H226 lung, greater than 10 µM in the assay with CCRF-CEM leukemia and 6.41 µM in the assay on IGROV1 ovarian.

As for `Cc1nc2cc(O)c(O)cc2cc1Oc1ccc(NC(=O)Nc2ccc(Cl)c(Cl)c2)cc1`, the GI50 in the assay on A549 NSCLC is 8.99 µM; with MALME-3M melanoma, 8.6 µM; in the assay on MDA-MB-435, 6.99 µM; with SF-268 CNS, 8.45 µM; with COLO 205 colon, 10.3 µM; with A498 renal, greater than 32.5 µM. Also, the GI50 was 7.62 µM with RPMI-8226 leukemia, 11.8 µM in the assay on NCI-H226 lung, 6.19 µM in the assay on CCRF-CEM leukemia and 12.3 µM with IGROV1 ovarian. Also, the TGI in the assay with A549 NSCLC was 26.2 µM; in the assay on MALME-3M melanoma, 26 µM; in the assay on MDA-MB-435 it was greater than 32.5 µM; in the assay with SF-268 CNS, greater than 32.5 µM; in the assay on COLO 205 colon it was greater than 32.5 µM; with A498 renal, greater than 32.5 µM. Besides, the TGI in the assay with RPMI-8226 leukemia is 20.7 µM; in the assay on NCI-H226 lung, greater than 32.5 µM; in the assay on CCRF-CEM leukemia, 21.8 µM; with IGROV1 ovarian it was greater than 32.5 µM.

For the compound `COC(=O)c1c(-c2ccccc2)csc1NC(=O)c1c(-c2ccccc2)noc1C`, the GI50 with A549 NSCLC is 0.568 µM; in the assay with MALME-3M melanoma, greater than 100 µM; in the assay with MDA-MB-435, 1.2 µM; in the assay on SF-268 CNS, 0.89 µM; in the assay with COLO 205 colon, 1.21 µM; in the assay with A498 renal, greater than 100 µM. In addition, the GI50 is 0.793 µM in the assay on RPMI-8226 leukemia, 1.56 µM in the assay on NCI-H226 lung, 1.77 µM with CCRF-CEM leukemia and 3.44 µM in the assay on IGROV1 ovarian. Also, the TGI with A549 NSCLC, in the assay on MALME-3M melanoma, in the assay on MDA-MB-435, with SF-268 CNS, in the assay with COLO 205 colon and in the assay on A498 renal was greater than 100 µM each time. The TGI with RPMI-8226 leukemia, in the assay with NCI-H226 lung, in the assay with CCRF-CEM leukemia and in the assay with IGROV1 ovarian was greater than 100 µM throughout.
